Earlier results in patent publication US9592699B2, “Dampening fluid for digital lithographic printing” (Xerox Corporation, priority 2011, dated 2017).

How the values were obtained:
[1] = not given; remark: listed apart in the source
[2] = not given; remark: listed apart in the source
[3] = not given; remark: listed apart in the source
[4] = not given; remark: listed apart in the source

SMILES	Heat of Vaporization at boiling point [kJ/kg]	Surface Tension at 25° C. [1] [dynes/cm]	Kinematic Viscosity at 25° C. [2] [cSt]	Vapor Pressure at 25° C. [3] [mmHg]	Solubility in Water [4] [ppm]	surface tension [1]	kinematic viscosity ([2]; 1 mm^2/sec)
COC(F)(F)C(F)(F)C(F)(F)F [(I-f), 1-methoxyheptafluoropropane]	142	12.4	0.32	484.5			
C[Si](C)(C)O[Si](C)(O[Si](C)(C)C)O[Si](C)(C)C [(IV-a), methyltris(trimethylsiloxy)silane]		16.8	1.5	<10			
C[Si](C)(C)O[Si](C)(C)C [(II-a), hexamethyldisiloxane]	200.8	15.9	0.65	35			
CC(OC(F)(F)C(F)C(F)(F)F)C(F)(F)C(F)C(F)(F)F (centres unmarked) [(I-c), 1,1,1,2,3,3-Hexafluoro-4-(1,1,2,3,3,3-hexafluoropropoxy)pentane]	115.6	17.7	1.07		<10		
C[Si](C)(C)O[Si](C)(C)O[Si](C)(C)C [(II-b), octamethyltrisiloxane]	158	17.4	1	4			
CCOC(F)(C(F)(F)C(F)(F)C(F)(F)F)C(F)(C(F)(F)F)C(F)(F)F (centres unmarked) [(I-b), 3-ethoxy-1,1,1,2,3,4,4,5,5,6,6,6-dodecafluoro-2-(trifluoromethyl)hexane]	88.5	16.2	0.77				
C[Si]1(C)O[Si](C)(C)O[Si](C)(C)O[Si](C)(C)O1 [(III-a), octamethylcyclotetrasiloxane]	133	18.4	2.3	1.5			
C[Si]1(C)O[Si](C)(C)O[Si](C)(C)O[Si](C)(C)O[Si](C)(C)O1 [(III-b), decamethylcyclopentasiloxane]	157	18.0	3.9	1			
O [Water, reference compound]		72	1			around 70 dynes/cm	about 1 centiStoke
COC(F)(C(F)(F)C(F)(F)F)C(F)(C(F)(F)F)C(F)(F)F (centres unmarked) [(I-a), 1,1,1,2,2,3,4,5,5,5-decafluoro-3-methoxy-4-(trifluoromethyl)pentane]	101.7	15	0.71	44.9			
